Laboratory results reported in PubChem BioAssay (NCI).
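Cultured in 96-well plates, cells were exposed to test compound for 48 hours across five concentrations. At the GI50, growth is halved. TGI denotes the concentration required for complete inhibition of growth.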

Experiments:
Assay in all cases: NCI-60 cell line screen, 48 h
786-0 renal = test system: 786-0 renal
A498 renal = test system: A498 renal
A549 NSCLC = test system: A549 NSCLC
ACHN renal = test system: ACHN renal
BT-549 breast = test system: BT-549 breast
CAKI-1 renal = test system: CAKI-1 renal
CCRF-CEM leukemia = test system: CCRF-CEM leukemia
COLO 205 colon = test system: COLO 205 colon
DU-145 prostate = test system: DU-145 prostate
EKVX NSCLC = test system: EKVX NSCLC
HCC-2998 colon = test system: HCC-2998 colon
HCT-116 colon = test system: HCT-116 colon
HCT-15 colon = test system: HCT-15 colon
HL-60(TB) leukemia = test system: HL-60(TB) leukemia
HOP-62 NSCLC = test system: HOP-62 NSCLC
HOP-92 NSCLC = test system: HOP-92 NSCLC
HS 578T breast = test system: HS 578T breast
HT29 colon = test system: HT29 colon
IGROV1 ovarian = test system: IGROV1 ovarian
K-562 leukemia = test system: K-562 leukemia
KM12 colon = test system: KM12 colon
LOX IMVI melanoma = test system: LOX IMVI melanoma
M14 melanoma = test system: M14 melanoma
MALME-3M melanoma = test system: MALME-3M melanoma
MCF7 breast = test system: MCF7 breast
MDA-MB-231 breast = test system: MDA-MB-231 breast
MDA-MB-435 = test system: MDA-MB-435
MOLT-4 leukemia = test system: MOLT-4 leukemia
NCI-H226 lung = test system: NCI-H226 lung
NCI-H23 lung = test system: NCI-H23 lung
NCI-H460 lung = test system: NCI-H460 lung
NCI-H522 lung = test system: NCI-H522 lung
NCI/ADR-RES ovarian = test system: NCI/ADR-RES ovarian
OVCAR-3 ovarian = test system: OVCAR-3 ovarian
OVCAR-4 ovarian = test system: OVCAR-4 ovarian
OVCAR-5 ovarian = test system: OVCAR-5 ovarian
OVCAR-8 ovarian = test system: OVCAR-8 ovarian
PC-3 prostate = test system: PC-3 prostate
RPMI-8226 leukemia = test system: RPMI-8226 leukemia
RXF 393 renal = test system: RXF 393 renal
SF-268 CNS = test system: SF-268 CNS
SF-295 CNS = test system: SF-295 CNS
SF-539 CNS = test system: SF-539 CNS
SK-MEL-2 melanoma = test system: SK-MEL-2 melanoma
SK-MEL-28 melanoma = test system: SK-MEL-28 melanoma
SK-MEL-5 melanoma = test system: SK-MEL-5 melanoma
SK-OV-3 ovarian = test system: SK-OV-3 ovarian
SN12C renal = test system: SN12C renal
SNB-19 CNS = test system: SNB-19 CNS
SNB-75 CNS = test system: SNB-75 CNS
SR leukemia = test system: SR leukemia
SW-620 colon = test system: SW-620 colon
T-47D breast = test system: T-47D breast
TK-10 renal = test system: TK-10 renal
U251 CNS = test system: U251 CNS
UACC-257 melanoma = test system: UACC-257 melanoma
UACC-62 melanoma = test system: UACC-62 melanoma
UO-31 renal = test system: UO-31 renal

In the case of Cc1cc(NC(=O)CCc2ccc(N3C(N)=NC(N)=NC3(C)C)cc2)ccc1S(=O)(=O)F, the GI50 (786-0 renal) is reported as 0.291 µM, the TGI (786-0 renal) is reported as greater than 100 µM and the GI50 (A498 renal) is reported as greater than 23.7 µM. For the same compound, the TGI (A498 renal) was greater than 100 µM, the GI50 (A549 NSCLC) was 0.151 µM and the TGI (A549 NSCLC) was greater than 100 µM. It also gave a GI50 (ACHN renal) of 26.2 µM, a TGI (ACHN renal) greater than 100 µM and a GI50 (BT-549 breast) of 6.53 µM. For the same compound, the TGI (BT-549 breast) was greater than 91.9 µM, the TGI (CAKI-1 renal) was greater than 100 µM and the GI50 (CCRF-CEM leukemia) was 0.243 µM. The TGI (CCRF-CEM leukemia) was greater than 100 µM, the GI50 (COLO 205 colon) was 0.358 µM and the TGI (COLO 205 colon) was greater than 100 µM. The GI50 (DU-145 prostate) was 2.63 µM, the TGI (DU-145 prostate) was greater than 100 µM and the GI50 (EKVX NSCLC) was 0.884 µM. The TGI (EKVX NSCLC) was greater than 100 µM, the GI50 (HCC-2998 colon) was 0.709 µM and the TGI (HCC-2998 colon) was greater than 100 µM. For the same compound, the GI50 (HCT-116 colon) was 0.62 µM, the TGI (HCT-116 colon) was greater than 100 µM and the GI50 (HCT-15 colon) was 4.51 µM. The TGI (HCT-15 colon) was greater than 100 µM, the GI50 (HL-60(TB) leukemia) was 3.45 µM and the TGI (HL-60(TB) leukemia) was greater than 100 µM. The GI50 (HOP-62 NSCLC) was 20.9 µM, the TGI (HOP-62 NSCLC) was greater than 100 µM and the GI50 (HOP-92 NSCLC) was greater than 39 µM. The TGI (HOP-92 NSCLC) was greater than 100 µM, the GI50 (HS 578T breast) was 28.3 µM and the TGI (HS 578T breast) was greater than 100 µM. The GI50 (HT29 colon) was less than 0.0374 µM, the TGI (HT29 colon) was greater than 100 µM and the TGI (IGROV1 ovarian) was greater than 100 µM. For the same compound, the GI50 (K-562 leukemia) was 0.737 µM, the TGI (K-562 leukemia) was greater than 100 µM and the GI50 (KM12 colon) was 0.338 µM. It also gave a TGI (KM12 colon) greater than 63.7 µM, a GI50 (LOX IMVI melanoma) of 0.172 µM and a TGI (LOX IMVI melanoma) greater than 100 µM. The GI50 (M14 melanoma) was 0.737 µM, the TGI (M14 melanoma) was greater than 100 µM and the GI50 (MALME-3M melanoma) was greater than 89.4 µM. It also gave a TGI (MALME-3M melanoma) greater than 100 µM, a GI50 (MCF7 breast) of 0.115 µM and a TGI (MCF7 breast) greater than 25.1 µM. For the same compound, the GI50 (MDA-MB-231 breast) was greater than 87.2 µM, the TGI (MDA-MB-231 breast) was greater than 100 µM and the GI50 (MDA-MB-435) was 0.18 µM. For the same compound, the TGI (MDA-MB-435) was greater than 100 µM, the GI50 (MOLT-4 leukemia) was 1.27 µM and the TGI (MOLT-4 leukemia) was greater than 100 µM. For the same compound, the GI50 (NCI-H226 lung) was 18.4 µM, the TGI (NCI-H226 lung) was greater than 100 µM and the GI50 (NCI-H23 lung) was 1.76 µM. It also gave a TGI (NCI-H23 lung) greater than 100 µM, a GI50 (NCI-H460 lung) of less than 0.0246 µM and a TGI (NCI-H460 lung) of 36.1 µM. The GI50 (NCI-H522 lung) was 3.66 µM, the TGI (NCI-H522 lung) was greater than 100 µM and the GI50 (NCI/ADR-RES ovarian) was greater than 100 µM. It also gave a TGI (NCI/ADR-RES ovarian) greater than 100 µM, a GI50 (OVCAR-3 ovarian) of 12.2 µM and a TGI (OVCAR-3 ovarian) greater than 100 µM. It also gave a GI50 (OVCAR-4 ovarian) of 12.3 µM, a TGI (OVCAR-4 ovarian) greater than 100 µM and a GI50 (OVCAR-5 ovarian) of 0.468 µM. It also gave a TGI (OVCAR-5 ovarian) greater than 100 µM, a GI50 (OVCAR-8 ovarian) of 0.6 µM and a TGI (OVCAR-8 ovarian) greater than 100 µM. It also gave a GI50 (PC-3 prostate) of 0.368 µM, a TGI (PC-3 prostate) greater than 100 µM and a GI50 (RPMI-8226 leukemia) of 0.464 µM. The TGI (RPMI-8226 leukemia) was greater than 100 µM, the GI50 (RXF 393 renal) was 1.35 µM and the TGI (RXF 393 renal) was greater than 100 µM. For the same compound, the GI50 (SF-268 CNS) was 0.524 µM, the TGI (SF-268 CNS) was greater than 100 µM and the GI50 (SF-295 CNS) was 2.61 µM. For the same compound, the TGI (SF-295 CNS) was greater than 100 µM, the GI50 (SF-539 CNS) was 1 µM and the TGI (SF-539 CNS) was 26.4 µM. The GI50 (SK-MEL-2 melanoma) was greater than 55.9 µM, the TGI (SK-MEL-2 melanoma) was greater than 100 µM and the GI50 (SK-MEL-28 melanoma) was greater than 32.6 µM. The TGI (SK-MEL-28 melanoma) was greater than 100 µM, the GI50 (SK-MEL-5 melanoma) was 0.125 µM and the TGI (SK-MEL-5 melanoma) was 19.1 µM. For the same compound, the GI50 (SK-OV-3 ovarian) was 4.58 µM, the TGI (SK-OV-3 ovarian) was greater than 100 µM and the GI50 (SN12C renal) was 0.447 µM. It also gave a TGI (SN12C renal) greater than 100 µM, a GI50 (SNB-19 CNS) of 0.269 µM and a TGI (SNB-19 CNS) greater than 100 µM. It also gave a GI50 (SNB-75 CNS) of 0.517 µM, a TGI (SNB-75 CNS) of 80.1 µM and a GI50 (SR leukemia) greater than 100 µM. The TGI (SR leukemia) was greater than 100 µM, the GI50 (SW-620 colon) was 0.146 µM and the TGI (SW-620 colon) was greater than 100 µM. For the same compound, the GI50 (T-47D breast) was 10.6 µM, the TGI (T-47D breast) was greater than 100 µM and the GI50 (TK-10 renal) was 4.94 µM. It also gave a TGI (TK-10 renal) greater than 100 µM, a GI50 (U251 CNS) of 0.148 µM and a TGI (U251 CNS) greater than 100 µM. It also gave a GI50 (UACC-257 melanoma) of 15.1 µM, a TGI (UACC-257 melanoma) greater than 100 µM and a GI50 (UACC-62 melanoma) of 0.14 µM. The TGI (UACC-62 melanoma) was greater than 100 µM, the GI50 (UO-31 renal) was greater than 100 µM and the TGI (UO-31 renal) was greater than 100 µM.
